How the values were obtained:
[1] = tested on: ERK1/2 phosphorylation of p90RSK in HT29 cells; assay: pRSK MSD Assay in HT29 cells; format: cell-based; settings: Homo sapiens, HT-29, read-out: ERK1/ERK2 PRSK MSD HT29 EC50
In short: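 Serum-starved HT29 cells (0.1% FBS overnight) treated with test compound for 120 min at 37° C, then lysed with protease and phosphatase inhibitors. Phospho-p90RSK quantified by MSD sandwich immunoassay: RSK capture antibody, phospho-RSK detection antibody plus Sulfo-tagged antibody, electrochemiluminescence read.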

[2] = tested on: ERK1/2 phosphorylation of p90RSK in A375 cells; assay: Detection of total and phosphor-RSK by MSD ELISA (A375); format: cell-based; settings: Homo sapiens, A-375, read-out: ERK1/ERK2 PRSK A375 EC50
In short: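 A375 cells serum-starved overnight in DMEM/0.1% FBS, then treated 2 h at 37° C with compound (1000× DMSO dilutions into medium). Lysates captured on RSK antibody-coated MSD plates; phospho-RSK (Ser380) and total RSK detected with SulfoTag secondary antibodies by electrochemiluminescence.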

## C=CC(=O)Nc1cc(C)ccc1Nc1nc(Nc2ccnc(F)c2)ncc1C(F)(F)F [Compound I-288, N-(2-((2-((2-Fluoropyridin-4-yl)amino)-5-(trifluoromethyl)pyrimidin-4-yl)amino)-5-methylphenyl)acrylamide]
[1]
  EC50: 0.101 to 0.5 µM
[2]
  EC50: 0.101 to 0.5 µM

## C=CC(=O)Nc1ccccc1Nc1nc(Nc2cc(OC)nc(N3CCS(=O)(=O)CC3)c2)ncc1C(F)(F)F [Compound I-291, N-(2-((2-((2-(1,1-Dioxidothiomorpholino)-6-methoxypyridin-4-yl)amino)-5-(trifluoromethyl)pyrimidin-4-yl)amino)phenyl)acrylamide]
[1]
  EC50: < 0.1 µM
[2]
  EC50: < 0.1 µM

## C=CC(=O)Nc1ccccc1Nc1nc(Nc2ccnnc2)ncc1C(F)(F)F [Compound I-293, N-(2-((2-(Pyridazin-4-ylamino)-5-(trifluoromethyl)pyrimidin-4-yl)amino)phenyl)acrylamide]
[1]
  EC50: 0.101 to 0.5 µM
[2]
  EC50: 0.501 to 0.999 µM

## C=CC(=O)Nc1cc(C)ccc1Nc1nc(Nc2cc(C)nc(OC)c2)ncc1C(F)(F)F [Compound I-295, N-(2-((2-((2-methoxy-6-methylpyridin-4-yl)amino)-5-(trifluoromethyl)pyrimidin-4-yl)amino)-5-methylphenyl)acrylamide]
[1]
  EC50: < 0.1 µM
[2]
  EC50: < 0.1 µM

## C=CC(=O)Nc1cc(C)ccc1Nc1nc(Nc2cc(OC)nc(N3CCN(C(C)=O)CC3)c2)ncc1Cl [Compound I-296, N-(2-((2-((2-(4-acetylpiperazin-1-yl)-6-methoxypyridin-4-yl)amino)-5-chloropyrimidin-4-yl)amino)-5-methylphenyl)acrylamide]
[1]
  EC50: < 0.1 µM
[2]
  EC50: < 0.1 µM

## C=CC(=O)Nc1cc(F)ccc1Nc1nc(Nc2cc(OC)ncc2C)ncc1C(F)(F)F [Compound I-322, N-(5-fluoro-2-((2-((2-methoxy-5-methylpyridin-4-yl)amino)-5-(trifluoromethyl)pyrimidin-4-yl)amino)phenyl)acrylamide]
[1]
  EC50: < 0.1 µM
[2]
  EC50: < 0.1 µM

## C=CC(=O)Nc1cc(C(F)(F)F)ccc1Nc1nc(Nc2cc(OC)ncc2C)ncc1C(F)(F)F [Compound I-323, N-(2-((2-((2-methoxy-5-methylpyridin-4-yl)amino)-5-(trifluoromethyl)pyrimidin-4-yl)amino)-5-(trifluoromethyl)phenyl)acrylamide]
[1]
  EC50: < 0.1 µM
[2]
  EC50: < 0.1 µM

## C=CC(=O)Nc1cc(C)ccc1Nc1nc(Nc2cc(OC)nc(N3CCN(C)CC3)c2)ncc1C(F)(F)F [Compound I-325, N-(2-((2-((2-methoxy-6-(4-methylpiperazin-1-yl)pyridin-4-yl)amino)-5-(trifluoromethyl)pyrimidin-4-yl)amino)-5-methylphenyl)acrylamide]
[1]
  EC50: 0.101 to 0.5 µM
[2]
  EC50: 0.101 to 0.5 µM

## C=CC(=O)Nc1cc(C)ccc1Nc1nc(Nc2cc(OC)nc(N3CC(O)C3)c2)ncc1C(F)(F)F [Compound I-328, N-(2-((2-((2-(3-hydroxyazetidin-1-yl)-6-methoxypyridin-4-yl)amino)-5-(trifluoromethyl)pyrimidin-4-yl)amino)-5-methylphenyl)acrylamide]
[1]
  EC50: < 0.1 µM
[2]
  EC50: < 0.1 µM

## C=CS(=O)(=O)Nc1cc(C)ccc1Nc1nc(Nc2cc(OC)ncc2C)ncc1C(F)(F)F [Compound I-333, N-(2-((2-((2-methoxy-5-methylpyridin-4-yl)amino)-5-(trifluoromethyl)pyrimidin-4-yl)amino)-5-methylphenyl)ethenesulfonamide]
[1]
  EC50: 0.101 to 0.5 µM
[2]
  EC50: 0.101 to 0.5 µM

## C=CC(=O)Nc1cc(OC)ccc1Nc1nc(Nc2cc(OC)nc(N3CCN(C)CC3)c2)ncc1C(F)(F)F [Compound I-334, N-(5-methoxy-2-((2-((2-methoxy-6-(4-methylpiperazin-1-yl)pyridin-4-yl)amino)-5-(trifluoromethyl)pyrimidin-4-yl)amino)phenyl)acrylamide]
[1]
  EC50: < 0.1 µM
[2]
  EC50: < 0.1 µM
